Experimental data reported in patent publication US20240139167A1, “LYSOSOME-ASSOCIATED MEMBRANE PROTEIN TARGETING COMPOUNDS AND USES THEREOF” (HADASIT MEDICAL RESEARCH SERVICES AND DEVELOPMENT LTD., priority 2021, published 2024).

What was measured:
[1] = system: HC and APBD patient skin fibroblasts; test: Seahorse ATP Rate Assay under glycogen burden; type: cell-based, human
Method: FIGS. 4A-4D include a bar graph of PAS staining for total glycogen in skin fibroblasts from different APBD patients (4A), images of PAS staining for total glycogen in APBD87 fibroblasts glucose-starved for 48 h (left), or glucose starved and then replenished for the last 24 h to induce glycogen burden (right) (4B), image acquisition was done by Nikon Eclipse Ti2 microscope using a 40×PlanFluor objective and CY3 filter; graph of image-based multiparametric phenotyping of APBD fibroblasts under 48 h glucose-starvation, or starvation and glucose replenishment as in 4B (4C), level of significance p=0.01; and bar graph of glycolytic and mitochondrial ATP production determined by Agilent's Seahorse machine and ATP rate assay kit (4D). Healthy control (HC) and APBD patient fibroblasts were untreated or treated with 10 μM Compound 1 for 48 h (chronic), or on assay for 20 min (acute). Readings were normalized to cell number as determined by Crystal Violet staining. Shown are mean and SD values based on n=6 repeats.
The RQ shift towards carbohydrate catabolism observed in vivo prompted the inventors to investigate whether carbohydrate catabolism is also up-modulated intracellularly. To that end, and especially since glycogen levels are highly versatile among fibroblasts derived from different APBD patients (FIG. 4A), the inventors first aimed at inducing a physiological glycogen overload, or glycogen burden condition, equivalent to the one found in tissues. […] Therefore, the inventors selected this glycogen burden condition to analyze catabolism at a cell level using an ATP Rate Assay (Agilent's Seahorse ATP Rate Assay). The results

[2] = target: T1, deglycosylated luminal LAMP1 domain (Homo sapiens, UniProt P11279); test: SPR with chemically deglycosylated LAMP1; type: binding
T1 construct: repeated the SPR experiments with a chemically deglycosylated luminal LAMP1 domain
T1 sequence (P11279 29-382): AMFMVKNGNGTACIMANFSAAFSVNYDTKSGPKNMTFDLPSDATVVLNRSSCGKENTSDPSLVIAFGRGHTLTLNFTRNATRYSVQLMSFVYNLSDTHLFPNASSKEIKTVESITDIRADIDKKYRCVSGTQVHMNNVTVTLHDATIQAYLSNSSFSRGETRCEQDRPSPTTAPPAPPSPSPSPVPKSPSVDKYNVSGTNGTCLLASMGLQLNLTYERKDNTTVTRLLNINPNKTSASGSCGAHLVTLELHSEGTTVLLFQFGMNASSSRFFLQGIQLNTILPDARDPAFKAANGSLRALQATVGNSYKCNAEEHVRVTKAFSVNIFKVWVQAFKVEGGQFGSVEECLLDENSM
Method: The inventors have investigated the mechanism of action of 144DG11. To that end, the inventors first decided to determine its molecular target. Nematic protein organization technique (NPOT, Inoviem, Ltd.) was applied to homogenates of APBD patient fibroblasts. The NPOT analysis has discovered protein hetero assemblies uniquely generated around 144DG11 only when it was added to the cell homogenates (FIG. 5A). The next step in this analysis has identified the interactome of protein targets interacting with 144DG11 in APBD patients' fibroblasts. […] Moreover, the inventors have tested by cellular thermal shift assay the specific interaction of 144DG11 with 6 of the 8 targets discovered by NPOT. […] This finding relates to a novel pathogenic hypothesis connecting cellular glycogen overload with glycogen trafficking to lysosomes via Starch Binding Domain containing Protein 1. To validate 144DG11's interaction with LAMP1, the inventors have used surface plasmon resonance (SPR) technology. […] The inventors hypothesized that this slow rate of association could be explained by inhibited diffusion of 144DG11 due to the bulky oligosaccharides at the glycosylation sites. […] In the search for a putative binding site for Compound 1 in LAMP1, the inventors have analyzed the N- and C-terminal subdomains of its luminal domain (residues A29-R195 and S217-D378, respectively), which have a similar topology. […]

[3] = system: LAMP1-KD and GFP control APBD primary fibroblasts; test: LAMP1 knockdown: autophagic flux, lysosomal pH (Lysosensor), PAS glycogen; type: cell-based, human
Description: FIGS. 6A-6E include bar graphs of autophagic flux, determined by the extent of lysosomal inhibitors-dependent increase in the ratio of lipidated to non-lipidated LC3 (LC3II/LC3I) (6A); representative TEM images of liver tissue from 9.5 month old Gbe^ys/ys mice treated with Compound 11, or 5% DMSO vehicle (6B), G: Glycogen (alpha particles) and polyglucosan (structures with variable electron densities), L: Lysosomes, M: Mitochondria; right panel: lysosomal glycogen stain was quantified by ImageJ “count particle” tool; micrograph of LAMP1 knocked down and control APBD primary skin fibroblasts treated or not with Compound 1 and lysosomal inhibitors (LI) and quantification of 3 experiments and results of Student's t-tests. *, p<0.1; **, p<0.05; ***, p<0.01 (6C); graphs of lysosomal pH changes determined in APBD primary fibroblasts transduced with lentiviruses encoding for GFP or GFP-shLAMP1 and treated or not with Compound 1 for 24 h and confocal microscope images of cells treated with Lysosensor and stained for PAS (6D); and bar graph of ATP production rate assay in LAMP1-KD and GFP (Control) cells treated for 24 h (chronic) or on assay (acute) with Compound 1 (6E).
To determine the functional importance of the interaction between Compound 1 and LAMP1, the inventors knocked down the latter using a lentiviral vector carrying GFP tagged shRNA against LAMP1. […] Furthermore, to test whether LAMP1-KD and Compound 1 enhanced autophagic flux by improving lysosomal function, the inventors quantified lysosomal acidification using the pH ratiometric dye Lysosensor™, which quantifies pH based on the yellow/blue emission ratio. […] The inventors show by flow cytometry (FIG. 6D, upper panel) the overall cellular acidification as an increase in 375 nm-excited yellow/blue emission, and by confocal microscopy that this acidification is associated with brighter yellow fluorescence in lysosomes (FIG. 6D, middle panel).

Agl^−/− mice = test: Blood metabolic panel in Agl^-/- mice (GSD3); type: in vivo; settings: 6-months mice treated for 3 months
Description: FIG. 18 includes a vertical bar graph showing blood metabolic panel based on n=5-6 6-months wildtype or Agl^−/− mice treated as indicated for 3 months.

[4] = both HC and APBD fibroblasts, glycogen burden

With `COCCN(Cc1sccc1C)C(=O)c1cc(C)nc(O)c1` [Compound 1] the “augmenting glycolytic contribution to ATP production: acute on assay supplementation vs 48 h pretreatment” value [1] was “more effective”, the “overall ATP production” value [1, 4] was “increased” and the “relative contribution of glycolytic ATP production at the expense of mitochondrial (OxPhos) ATP production” value [1, 4] was “increased”. The “binding to deglycosylated LAMP1” value [2] was “did not bind”, the “autophagic flux in LAMP1 knocked down cells” value ([3]; 24 h serum starvation) was “further enhanced” and the “lysosomal pH (Lysosensor)” value ([3]; GFP and LAMP1-KD APBD cells, 24 h) was “led to lysosomal acidification”. The “reduction of cellular glycogen levels by LAMP knockdown (PAS)” value ([3]; GFP control and shLAMP1-GFP transduced) was “slightly enhanced” and the blood triglycerides (Agl^−/− mice) was “decreased”.
